The values that follow come from patent US10548870B2, “Method for treating multiple sclerosis” (OLATEC THERAPEUTICS LLC, priority 2017, dated 2020).

Structures are written as SMILES.

Common to all, as to format: in vivo, C57Bl/6 mice
Assay [1] relates to experimental allergic encephalomyelitis (EAE) mice. The assay is described as follows: Prophylactic intraperitoneal treatment of dapansutrile in EAE mice. The following applies: 60 mg/kg i.p. twice daily, Day 0 to Day 21. As for the experimental part:
(§1) Active immunization was done in female adult (8 weeks old) C57Bl/6 mice. Briefly, mice were subcutaneously injected with […] of myelin oligodendrocyte glycoprotein (MOG)35-55 peptide ([…], SEQ ID NO: 1) emulsified in complete Freund's Adjuvant (Sigma Aldrich) supplemented with 4 mg of micobacterioum tuberculosis H37RA (DIFCO Laboratories). On day 0 and 2 post-immunization, mice were also injected intraperitoneally (i.p.) with 500 ng of pertussis toxin (List Biological Laboratories).
Starting on day 0 (day of immunization), mice were injected intraperitoneally twice daily with dapansutrile (OLT1177™, 60 mg/kg) or saline until the end of the study (Day 21). Each treated group had 10 mice.
Animals were monitored daily for signs of EAE and the scoring system is as follows: 0=no clinical symptoms, normal walking; 0.5=partial paralyzed tail, 1=fully paralyzed tail; 2=mild hind-limb weakness, quick righting reflex; 3=severe hind-limb weakness, slow righting reflex, unable to bear weight; 3.5=severe hind-limb weakness and partial paralysis of hind limb; 4=complete paralysis of at least one hind limbs; 4.5=complete paralysis of one or both one hind limbs and trunk weakness; 5=complete paralysis of one or both hind limbs, forelimb weakness or paralysis; 6=mouse is found dead by EAE. […]

The test system is the same in assay [2]. In words: Prophylactic oral treatment (dapansutrile-enriched diet) in EAE mice. On the procedure:
as §1
(§2) Animals were monitored daily for signs of EAE and the scoring system is as follows: 0=no clinical symptoms, normal walking; 0.5=partial paralyzed tail, 1=fully paralyzed tail; 2=mild hind-limb weakness, quick righting reflex; 3=severe hind-limb weakness, slow righting reflex, unable to bear weight; 3.5=severe hind-limb weakness and partial paralysis of hind limb; 4=complete paralysis of at least one hind limbs; 4.5=complete paralysis of one or both one hind limbs and trunk weakness; 5=complete paralysis of one or both hind limbs, forelimb weakness or paralysis; 6=mouse is found dead by EAE.
(§3) EAE mice were euthanized at either day 21 or 23 post-immunization with an overdose of pentobarbital sodium (Dolethal) and transcardially perfused with 4% paraformaldehyde (PFA) in 0.1M phosphate buffer (PB). Lumbar segments of spinal cords were harvested, post-fixed in 4% PFA for 2 hours and cryoprotected in 30% sucrose in 0.1M at 4° C. for at least 48 hours. Spinal cords were embedded in TissueTek OCT (Sakura), cut in transversal sections (15 μm-thick) with a cryostat (Leica) between L3 and L5 segments and serially picked up on gelatine-coated glass slides. Samples were stored at −20° C.
(§4) Sections were stained with Luxol Fast Blue (LFB) (Sigma Aldrich). Briefly, after a graded dehydration, sections were placed in 1 mg/mL of LFB solution in 96% EtOH and 0.05% acetic acid overnight at 37° C. and protected from light. Then, slides were washed with 96% EtOH, rehydrated in distilled water and placed in a 0.5 mg/mL Li2CO3 solution for 3-5 minutes at room temperature. Finally, sections were washed in distilled water, dehydrated again in 100% EtOH and mounted in DPX (Sigma Aldrich). To assess the demyelinated area in the spinal cord, 6 random images per mice were captured at 10× magnification with an Olympus BX51 and the attached Olympus DP73 Camera. The total demyelinated area within the spinal cord was measured with Image J image analysis software.
(§5) EAE induction, functional assessment, and histological analysis were the same as those described in Example 2.
Starting on day 0 (day of immunization), EAE-mice were fed either a dapansutrile-enriched diet or a standard diet. […]

For assay [3] the test system is unchanged. In words: Oral gavage treatment with dapansutrile in EAE mice starting at disease onset. As for the experimental part:
as §1, §2, §3, §4, §5
60 mg/kg of dapansutrile was solubilized with distilled water and administered daily by oral gavage at 60 mg/kg animal weight to mice twice per day. […] Control mice were administered distilled water at the same days. […]

Where [4] appears, read: diet with 3.75 g dapansutrile per kg food, Day 0 to Day 23, vs standard diet (FIG. 2B).
Setting [5] is: 60 mg/kg oral gavage twice daily from disease onset, vs vehicle (FIG. 3B).

Consider `CS(=O)(=O)CCC#N` [dapansutrile, 3-methanesulfonylpropionitrile], for which the “demyelination in the lumbar spinal cord (LFB staining)” value in assay [1] (vs saline (FIG. 1B)) is on record as “reduced the demyelination in the spinal cord”. For the same compound, the EAE clinical score result in assay [1] (vs saline, significant from day 11 to day 21 (FIG. 1A)) is reported as “significant lower disease scores”. Moreover, in assay [2] (diet with 3.75 g dapansutrile per kg food (about 50 mg/kg/day), Day 0 to Day 23, vs standard diet (FIG. 2A)), the “daily EAE clinical scores after disease onset” value is given as “lower daily EAE clinical scores”. Further, in assay [2] (setting [4]), the “cumulative EAE score” value was “lower cumulative EAE scores” and the “maximum EAE score” value is “lower maximum EAE scores”. Besides, the “reduction of demyelination in the spinal cord” value in assay [2] (diet with 3.75 g dapansutrile per kg food, 23 days after immunization, vs standard food (FIG. 2C)) is on record as “about 2 fold”. The “reduction in the EAE score compared to vehicle” value in assay [3] (60 mg/kg oral gavage twice daily from disease onset (FIG. 3A)) was “about 1 point”. Further, in assay [3] (setting [5]), the “cumulative clinical EAE score” value is recorded as “significantly reduced” and the “maximum clinical EAE score” value is listed as “significantly reduced”. For the same compound, the “demyelination in LFB stained spinal cords” value in assay [3] (60 mg/kg oral gavage twice daily from disease onset, vs vehicle (FIG. 3C)) is “protection against demyelination”.
